Assay results from US10519177B2, “Heterocyclic compounds and uses thereof” (Plexxikon Inc., priority 2013, dated 2019).
Where two headings read alike, the source gives them in different places.

What was measured:
[1] = test system: MV-4-11 cells; assay: Oncology cell growth assay MV-4-11 (CellTiter Glo); format: cell-based; settings: Homo sapiens, MV4-11, 72 h, read-out: Cell activity (IC50 μM) MV-4-11 3d-Growth
In short: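 Growth read by CellTiter Glo luminescence after 72 h compound treatment of MLL-AF4-bearing MV-4-11 cells (3000/well). Titration: 8 points, 1:3 steps, maximum 10 μM, 0.2% DMSO final. Data normalized to DMSO wells, four-parameter fit gives pIC50.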

[2] = test system: bromodomain; assay: at least one of the bromodomain cell assays of Example 57; format: cell-based; settings: at least one of the bromodomain cell assays described in Example 57; read-out: IC50 in at least one of the bromodomain cell assays
[3] = biological target: BRD4-BD12 (1-477) (Homo sapiens (Human), UniProt O60885); assay: Alphascreen binding assay BRD4-BD12; settings: BRD4(1 2) H4; read-out: Biochemical activity (IC50 μM) BRD4(1 2) H4
In short: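 In this competition format, compounds displace a biotinylated tetra-acetyl H4 peptide from E. coli-expressed human BRD4 bromodomain constructs captured on nickel chelate beads. The reaction runs at pH 7.5 with 2 mM DTT and detergent for 1 h at room temperature before a 30 min bead step.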

Row | Compound | IC50 [1] [µM] | IC50 [2] [µM] | IC50 [3] [µM] | IC50 ([1]; MV-4-11, 3d growth) [µM]
1 | COC(=O)c1ccc(-c2cn(CC3(F)CCC(F)(F)CC3)c3cc(-c4c(C)noc4C)cnc23)cc1F [P-0387, methyl 4-[6-(3,5-dimethylisoxazol-4-yl)-1-[(1,4,4-trifluorocyclohexyl)methyl]pyrrolo[3,2-b]pyridin-3-yl]-2-fluoro-benzoate] | < 1 | < 10 | < 1 | 
2 | Cc1noc(C)c1-c1cnc2c(I)cn(CC3CCC(F)(F)CC3)c2c1 [P-0250, 4-[1-[(4,4-difluorocyclohexyl)methyl]-3-iodo-pyrrolo[3,2-b]pyridin-6-yl]-3,5-dimethyl-isoxazole] | < 1 | < 10 | < 1 | 
3 | Cc1noc(C)c1-c1cnc2c(-c3cnn(CC(F)(F)F)c3)cn(CC3CCC(F)(F)CC3)c2c1 [P-0253, 4-[1[(4,4-difluorocyclohexyl)methyl]-3-[1-(2,2,2-trifluoroethyl)pyrazol-4-yl]pyrrolo[3,2-b]pyridin-6-yl]-3,5-dimethyl-isoxazole] | < 1 | < 10 | < 1 | 
4 | COC(=O)c1ccc(-c2cn(CC3CCC4(CC3)CC4)c3cc(-c4c(C)noc4C)cnc23)cc1 [P-0581, methyl 4-[6-(3,5-dimethylisoxazol-4-yl)-1-(spiro[2.5]octan-6-ylmethyl)pyrrolo[3,2-b]pyridin-3-yl]benzoate] |  | < 10 | < 1 | 1 to 10
5 | Cc1noc(C)c1-c1cnc2c(-c3ccc(C(=O)O)c(F)c3)cn(CC3(F)CCCCC3)c2c1 [P-0469, 4-[6-(3,5-dimethylisoxazol-4-yl)-1-[(1-fluorocyclohexyl)methyl]pyrrolo[3,2-b]pyridin-3-yl]-2-fluoro-benzoic acid] |  | < 10 | < 1 | < 1
6 | Cc1noc(C)c1-c1cnc2c(-c3ccc(C(=O)NC4CC4)nc3)cn([C@@H](C)c3ccccn3)c2c1 [P-0543, N-cyclopropyl-5-[6-(3,5-dimethylisoxazol-4-yl)-1-[(1S)-1-(2-pyridyl)ethyl]pyrrolo[3,2-b]pyridin-3-yl]pyridine-2-carboxamide] |  | < 10 | < 1 | < 1
7 | [2H]C([2H])(C1CCC(F)(F)CC1)n1ccc2ncc(-c3c(C)nnn3CC)cc21 [P-0360, 1-[dideuterio-(4,4-difluorocyclohexyl)methyl]-6-(3-ethyl-5-methyl-triazol-4-yl)pyrrolo[3,2-b]pyridine] | 10 to 200 | < 10 | 1 to 10 | 
8 | Cc1noc(C)c1-c1cnc2c(-c3ccc(C(=O)O)cc3)cn(CC3CCC4(CC3)CC4)c2c1 [P-0582, 4-[6-(3,5-dimethylisoxazol-4-yl)-1-(spiro[2.5]octan-6-ylmethyl)pyrrolo[3,2-b]pyridin-3-yl]benzoic acid] |  | < 10 | < 1 | < 1
9 | [2H]C([2H])(C1CC(F)(F)C1)n1cc(-c2cnn(C(F)F)c2)c2ncc(-c3c(C)noc3C)cc21 [P-0256, 4-[1-[dideuterio-(3,3-difluorocyclobutyl)methyl]-3-[1-(difluoromethyl)pyrazol-4-yl]pyrrolo[3,2-b]pyridin-6-yl]-3,5-dimethyl-isoxazole] | < 1 | < 10 | < 1 | 
10 | Cc1noc(C)c1-c1cnc2c(-c3ccc(C(=O)O)s3)cn(CC3CCC(F)(F)CC3)c2c1 [P-0485, 5-[1-[(4,4-difluorocyclohexyl)methyl]-6-(3,5-dimethylisoxazol-4-yl)pyrrolo[3,2-b]pyridin-3-yl]thiophene-2-carboxylic acid] |  | < 10 | < 1 | < 1
11 | Cc1noc(C)c1-c1cnc2c(-c3ccc(S(=O)(=O)NC4CC4)cc3)cn(CC3(F)CCCCC3)c2c1 [P-0494, N-cyclopropyl-4-[6-(3,5-dimethylisoxazol-4-yl)-1-[(1-fluorocyclohexyl)methyl]pyrrolo[3,2-b]pyridin-3-yl]benzenesulfonamide] |  | < 10 | < 1 | < 1
12 | COC(=O)Nc1ccc(-c2cn(CC3(F)CCCCC3)c3cc(-c4c(C)noc4C)cnc23)cc1 [P-0493, methyl N-[4-[6-(3,5-dimethylisoxazol-4-yl)-1-[(1-fluorocyclohexyl)methyl]pyrrolo[3,2-b]pyridin-3-yl]phenyl]carbamate] |  | < 10 | < 1 | < 1
13 | CC[C@@H](c1ccccc1)n1cc(-c2ccc(C(=O)O)cc2)c2ncc(-c3c(C)noc3C)cc21 [P-0567, 4-[6-(3,5-dimethylisoxazol-4-yl)-1-[(1S)-1-phenylpropyl]pyrrolo[3,2-b]pyridin-3-yl]benzoic acid] |  | < 10 | < 1 | < 1
14 | Cc1noc(C)c1-c1cnc2c(-c3ccc(C(=O)O)nc3)cn(CC3(F)CCCCC3)c2c1 [P-0455, 5-[6-(3,5-dimethylisoxazol-4-yl)-1-[(1-fluorocyclohexyl)methyl]pyrrolo[3,2-b]pyridin-3-yl]pyridine-2-carboxlic acid] |  | < 10 | < 1 | < 1
15 | Cc1noc(C)c1-c1cnc2c(-c3ccc(-c4nnn[nH]4)cc3)cn(CC3(F)CCC(F)(F)CC3)c2c1 [P-0461, 3,5-dimethyl-4-[3-[4-(1H-tetrazol-5-yl)phenyl]-1-[(1,4,4-trifluorocyclohexyl)methyl]pyrrolo[3,2-b]pyridin-6-yl]isoxazole] |  | < 10 | < 1 | < 1
16 | Cc1noc(C)c1-c1cnc2c(-c3cnn(CC(F)(F)F)c3)cn([C@@H](C)c3ccccn3)c2c1 [P-0512, 3,5-dimethyl-4-[1-[(1S)-1-(2-pyridyl)ethyl]-3-[1-(2,2,2-trifluoroethyl)pyrazol-4-yl]pyrrolo[3,2-b]pyridin-6-yl]isoxazole] |  | < 10 | < 1 | < 1
17 | Cc1noc(C)c1-c1cnc2c(-c3ccc(C(=O)O)cc3)cn(CC3CCCC3)c2c1 [P-0552, 4-[1-(cyclopentylmethyl)-6-(3,5-dimethylisoxazol-4-yl)pyrrolo[3,2-b]pyridin-3-yl]benzoic acid] |  | < 10 | < 1 | < 1
18 | Cc1noc(C)c1-c1cnc2c(-c3cnn(C(F)F)c3)cn([C@@H](C)c3ccc(F)cc3)c2c1 [P-0355, 4-[3-[1-(difluoromethyl)pyrazol-4-yl]-1-[(1S)-1-(4-fluorophenyl)ethyl]pyrrolo[3,2-b]pyridin-6-yl]-3,5-dimethyl-isoxazole] | < 1 | < 10 | < 1 | 
19 | Cc1noc(C)c1-c1cnc2c(-c3ccc(C(C)(C)C(=O)O)cc3)cn(CC3(C)CCOCC3)c2c1 [P-0778, 2-[4-[6-(3,5-dimethylisoxazol-4-yl)-1-[(4-methyltetrahydropyran-4-yl)methyl]pyrrolo[3,2-b]pyridin-3-yl]phenyl]-2-methyl-propanoic acid] |  | < 10 | < 1 | 1 to 10
20 | Cc1noc(C)c1-c1cnc2c(-c3ccc(F)c(C(=O)O)c3)cn(CC3(F)CCCCC3)c2c1 [P-0467, 5-[6-(3,5-dimethylisoxazol-4-yl)-1-[(1-fluorocyclohexyl)methyl]pyrrolo[3,2-b]pyridin-3-yl]-2-fluoro-benzoic acid] |  | < 10 | < 1 | < 1
21 | COCc1ccc(-c2cn(CC3CCCCC3)c3cc(-c4c(C)noc4C)cnc23)cc1 [P-0705, 4-[1-(cyclohexylmethyl)-3-[4-(methoxymethyl)phenyl]pyrrolo[3,2-b]pyridin-6-yl]-3,5-dimethyl-isoxazole] |  | < 10 | < 1 | < 1
22 | Cc1noc(C)c1-c1cnc2c(-c3ccc(C(=O)O)cc3)cn(CC3CCCCCCC3)c2c1 [P-0579, 4-[1-(cyclooctylmethyl)-6-(3,5-dimethylisoxazol-4-yl)pyrrolo[3,2-b]pyridin-3-yl]benzoic acid] |  | < 10 | < 1 | < 1
23 | CCNC(=O)Nc1ccc(-c2cn(CC3CCC(F)(F)CC3)c3cc(-c4c(C)noc4C)cnc23)cn1 [P-0584, 1-[5-[1-[(4,4-difluorocyclohexyl)methyl]-6-(3,5-dimethylisoxazol-4-yl)pyrrolo[3,2-b]pyridin-3-yl]-2-pyridyl]-3-ethyl-urea] |  | < 10 | < 1 | < 1
24 | Cc1noc(C)c1-c1cnc2c(-c3cnn(CC(F)(F)F)c3)cn(Cc3cccnn3)c2c1 [P-0531, 3,5-dimethyl-4-[1-(pyridazin-3-ylmethyl)-3-[1-(2,2,2-trifluoroethyl)pyrazin-4-yl]pyrrolo[3,2-b]pyridin-6-yl]isoxazole] |  | < 10 | < 1 | < 1
25 | Cc1noc(C)c1-c1cnc2c(-c3ccc(S(=O)(=O)NC4CC4)cc3)cn([C@@H](C)c3ccccn3)c2c1 [P-0557, N-cyclopropyl-4-[6-(3,5-dimethylisoxazol-4-yl)-1-[(1S)-1-(2-pyridyl)ethyl]pyrrolo[3,2-b]pyridin-3-yl]benzenesulfonamide] |  | < 10 | < 1 | < 1
26 | COC(=O)c1ccc(-c2cn([C@H](C)c3ccccn3)c3cc(-c4c(C)noc4C)cnc23)cc1 [P-0508, methyl 4-[6-(3,5-dimethylisoxazol-4-yl)-1-[(1R)-1-(2-pyridyl)ethyl]pyrrolo[3,2-b]pyridin-3-yl]benzoate] |  | < 10 | < 1 | < 1
